Measurements reported in patent publication US20240400553A1, “AMINE BASED MATRIPTASE 2 INHIBITORS AND USES THEREOF” (Disc Medicine, Inc., priority 2023, published 2024).
pKi: −log10 of the molar value.

These compounds were tested against T1, Human Recombinant Matriptase 2 (Homo sapiens, UniProt Q8IU80) (assay: Matriptase 2 inhibition, fluorescence based assay (Method I)). Settings: Table A; Ki of Matriptase-2, class symbols; read-out: Mat-2 Ki.
T1 construct: made in house
T1 sequence (Q8IU80 1-811): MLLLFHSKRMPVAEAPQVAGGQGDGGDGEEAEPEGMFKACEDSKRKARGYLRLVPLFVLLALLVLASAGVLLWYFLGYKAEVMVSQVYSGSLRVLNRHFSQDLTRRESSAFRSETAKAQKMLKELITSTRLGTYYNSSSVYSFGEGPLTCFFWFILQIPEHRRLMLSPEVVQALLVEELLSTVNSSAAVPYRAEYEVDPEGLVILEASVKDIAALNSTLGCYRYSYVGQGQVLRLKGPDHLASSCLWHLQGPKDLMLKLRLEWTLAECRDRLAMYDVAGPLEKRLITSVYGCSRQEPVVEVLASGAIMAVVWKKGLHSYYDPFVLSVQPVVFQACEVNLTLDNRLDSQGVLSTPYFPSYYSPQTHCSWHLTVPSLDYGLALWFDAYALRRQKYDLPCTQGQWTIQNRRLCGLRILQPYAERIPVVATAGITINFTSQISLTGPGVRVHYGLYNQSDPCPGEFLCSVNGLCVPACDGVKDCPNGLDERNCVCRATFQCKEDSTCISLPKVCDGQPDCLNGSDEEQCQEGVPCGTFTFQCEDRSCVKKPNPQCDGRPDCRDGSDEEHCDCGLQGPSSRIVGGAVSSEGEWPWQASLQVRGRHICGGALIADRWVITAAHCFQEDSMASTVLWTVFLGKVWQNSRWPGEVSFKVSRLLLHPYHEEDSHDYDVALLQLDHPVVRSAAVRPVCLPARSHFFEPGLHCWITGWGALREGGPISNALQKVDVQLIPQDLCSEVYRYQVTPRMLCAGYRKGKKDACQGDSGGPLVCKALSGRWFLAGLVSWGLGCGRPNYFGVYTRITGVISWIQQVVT
Assay type: biochemical
Summary of the method: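 Fluorogenic readout (Ex 360/Em 480 nm) taken 60 min after adding 62 μM Boc-Gln-Ala-Arg-AMC, following 30-min enzyme–compound preincubation at 25 °C. Conditions: 3.5 nM in-house enzyme, pH 7.5 Tris/NaCl/gelatin buffer, 1% DMSO; percent inhibition versus concentration fitted by variable-slope sigmoidal regression.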

`CN1CCCC1COC(=O)Nc1cc(Cn2c(C(=O)O)cc3ccc(CN)cc32)c2ccccc2c1` (racemic) [Compound 398, 6-(aminomethyl)-1-{[3-({[(1-methylpyrrolidin-2-yl)methoxy]carbon-yl}amino]naphthalen-1-yl]methyl}-1H-indole-2-carboxylic acid] was tested, and the pKi was 5.52 to 6.30.

Same assay, conditions: Table A; Ki of Matriptase-2; read-out: Mat-2 Ki

`CC(C)(C)n1cnc(COC(=O)c2cc3ccc(CN)nc3n2Cc2cc(NS(=O)(=O)Cc3ccccc3)cc3ccccc23)c1` [Compound 96, (1-tert-butyl-1H-imid-azol-4-yl)methyl 6-(aminomethyl)-1-{[3-(phenylmethanesulfon-amido)naphthalen-1-yl]-methyl}-1H-pyrrolo[2,3-b]pyridine-2-carboxylate] and `Cn1cncc1COC(=O)c1cc2ccc(CN)nc2n1Cc1cc(NS(=O)(=O)Cc2ccccc2)cc2ccccc12` [Compound 20, (1-methyl-1H-imidazol-5-yl)methyl 6-(amino-methyl)-1-{[3-(phenyl-methanesulfonamido)-naphthalen-1-yl]methyl}-1H-pyrrolo[2,3-b]pyr-idine-2-carboxylate] cannot be ordered by pKi: 6.30 to 7.00 for the first, no less than 7.00 for the second.

First: NCc1ccc2cc(C(=O)OCCn3cccc3)n(Cc3cc(NS(=O)(=O)Cc4ccccc4)cc4ccccc34)c2n1 [Compound 114, 2-(1H-pyrrol-1-yl)ethyl 6-(aminomethyl)-1-{[3-(phenylmethanesulfon-amido)naphthalen-1-yl]-methyl}-1H-pyrrolo[2,3-b]pyridine-2-carboxylate]
Second: CC(C)(CN)COC(=O)c1cc2ccc(CN)nc2n1Cc1cc(NS(=O)(=O)Cc2ccccc2)cc2ccccc12 [Compound 40, 3-amino-2,2-dimethyl-propyl 6-(aminomethyl)-1-{[3-(phenylmethane-sulfonamido)naphthalen-1-yl]methyl}-1H-pyrrolo-[2,3-b]pyridine-2-car-boxylate]
The pKi of the first is lower: 5.52 to 6.30 for the first, no less than 7.00 for the second. The second binds more tightly here.

`CN1CCC(COC(=O)c2cc3ccc(CN)nc3n2Cc2cc(NS(=O)(=O)[C@H](F)c3ccccc3)cc3ccccc23)CC1` (racemic) [Compound 23, (1-methylpiperidin-4-yl)methyl 6-(amino-methyl)-1-({3-[fluoro-(phenyl)methanesulfon-amido]naphthalen-1-yl}-methyl)-1H-pyrrolo[2,3-b]pyridine-2-carboxylate] and `NCc1ccc2cc(C(=O)OCC3CCN(C=O)CC3)n(Cc3cc(NS(=O)(=O)Cc4ccccc4)cc4ccccc34)c2n1` [Compound 59, (1-formylpiperidin-4-yl)-methyl 6-(aminomethyl)-1-{[3-(phenylmethane-sulfonamido)naphthalen-1-yl]methyl}-1H-pyr-rolo[2,3-b]pyridine-2-carboxylate] cannot be ordered by pKi: no less than 7.00 for the first, no less than 7.00 for the second.

`NCc1ccc2cc(C(=O)O)n(Cc3cc(NS(=O)(=O)Cc4ccsc4)cc4ccccc34)c2n1` [Compound 4] and `Cn1ccnc1COC(=O)c1cc2ccc(CN)nc2n1Cc1cc(NS(=O)(=O)Cc2ccsc2)cc2ccccc12` [Compound 157, (1-methyl-1H-imidazol-2-yl)methyl 6-amino-methyl)-1-({3-[(thio-phen-3-yl)methanesul-fonamido]naphthalen-1-yl}methyl)-1H-pyrrolo-[2,3-b]pyridine-2-car-boxylate] cannot be ordered by pKi: no less than 7.00 for the first, no less than 7.00 for the second.

`Cc1cccc(C)c1CS(=O)(=O)Nc1cc(Cn2c(C(=O)OCC3CCN(C)CC3)cc3ccc(CN)nc32)c2ccccc2c1` [Compound 188, (1-methylpiperidin-4-yl)methyl 6-(aminometh-yl)-1-({3-[(2,6-dimethyl-phenyl)methanesulfon-amido]naphthalen-1-yl}-methyl)-1H-pyrrolo[2,3-b]pyridine-2-carboxylate] and `COCCN1CC[C@H](COC(=O)c2cc3ccc(CN)nc3n2Cc2cc(NS(=O)(=O)Cc3c(C)cccc3C)cc3ccccc23)C1` (racemic) [Compound 194, [1-(2-methoxyethyl)pyr-rolidin-3-yl]methyl 6-(aminomethyl)-1-({3-[(2,6-dimethylphenyl)-methanesulfonamido]-naphthalen-1-yl}meth-yl)-1H-pyrrolo[2,3-b]-pyridine-2-carboxylate] cannot be ordered by pKi: no less than 7.00 for the first, no less than 7.00 for the second.

`C[C@H](OC(=O)c1cc2ccc(CN)nc2n1Cc1cc(NS(=O)(=O)Cc2ccccc2)cc2ccccc12)C1CCN(C)CC1` (racemic) [Compound 48, 1-(1-methylpiperidin-4-ylethyl 6-(aminomethyl)-1-{[3-(phenylmethane-sulfonamido)naphthalen-1-yl]methyl}-1H-pyr-rolo[2,3-b]pyridine-2-carboxylate] and `CN1CCN(C)[C@@H](COC(=O)c2cc3ccc(CN)nc3n2Cc2cc(NS(=O)(=O)Cc3ccccc3)cc3ccccc23)C1` (racemic) [Compound 51, (1,4-dimethylpiperazin-2-yl)methyl 6-(amino-methyl)-1-{[3-(phenyl-methanesulfonamido)-naphthalen-1-yl]methyl}-1H-pyrrolo[2,3-b]pyr-idine-2-carboxylate] cannot be ordered by pKi: no less than 7.00 for the first, no less than 7.00 for the second.

Compound `CNC(=O)c1cc2ccc(CN)nc2n1Cc1cc(NS(=O)(=O)CC[C@@H]2CCCN2)cc2ccccc12` [Compound 3] has a pKi of 6.30 to 7.00.

Same assay, conditions: Table A; Ki of Matriptase-2 given as class symbols; read-out: Mat-2 Ki

`Cc1cccc(C)c1CS(=O)(=O)Nc1cc(Cn2c(C(=O)OCCC3CCN(C)CC3)cc3ccc(CN)cc32)c2ccccc2c1` [Compound 377, 2-(1-methylpiperidin-4-yl)ethyl 6-(aminometh-yl)-1-({3-[(2,6-dimethyl-phenyl)methanesulfon-amido]naphthalen-1-yl}-methyl)-1H-indole-2-carboxylate] and `CN1CCC(COC(=O)c2cc3ccc(CN)cc3n2Cc2cc(NS(=O)(=O)Cc3cccs3)cc3ccccc23)CC1` [Compound 379, (1-methylpiperidin-4-yl)-methyl 6-(aminomethyl)-1-({3-[(thiophen-2-yl)-methanesulfonamido]-naphthalen-1-yl}meth-yl)-1H-indole-2-carbox-ylate] cannot be ordered by pKi: no less than 7.00 for the first, no less than 7.00 for the second.

`Cn1ccnc1COC(=O)c1cc2ccc(CN)cc2n1Cc1cc(NS(=O)(=O)Cc2ccsc2)cc2ccccc12` [Compound 381, (1-methyl-1H-imidazol-2-yl)methyl 6-(amino-methyl)-1-({3-[(thio-phen-3-yl)methanesulfon-amido]naphthalen-1-yl}-methyl)-1H-indole-2-carboxylate] and `COc1ccc2c(Cn3c(C(=O)O)cc4ccc(CN)nc43)cc(NS(=O)(=O)Cc3ccccc3)cc2c1` [Compound 361] cannot be ordered by pKi: no less than 7.00 for the first, 6.30 to 7.00 for the second.

First: NCc1ccc2cc(C(=O)O)n(Cc3cc(NS(=O)(=O)N4CCC(C(F)(F)F)CC4)cc4ccccc34)c2c1 [Compound 393, 6-(aminomethyl)-1-{[3-({[4-(trifluoromethyl)-piperidin-1-yl]sulfonyl}-amino)naphthalen-1-yl]-methyl}-1H-indole-2-carboxylic acid]
Second: CS(=O)(=O)N1CCC(CNC(=O)Nc2cc(Cn3c(C(=O)O)cc4ccc(CN)nc43)c3ccccc3c2)CC1 [Compound 293, 6-(aminomethyl)-1-{[3-({[(1-methanesulfonyl-piperidin-4-yl)methyl]-carbamoyl}amino)naph-thalen-1-yl]methyl}-1H-pyrrolo[2,3-b]pyridine-2-carboxylic acid]
The pKi of the first is lower: 5.52 to 6.30 for the first, 6.30 to 7.00 for the second. The second binds more tightly here.

First: CN1CCC(COC(=O)c2cc3ccc(CN)nc3n2Cc2cc(NS(=O)(=O)Cc3ccccc3)cc3c2CCCC3)CC1 [Compound 286, (1-methylpiperidin-4-yl)methyl 6-(aminomethyl)-1-((3-((phenylmethyl)sulfonamido)-5,6,7,8-tetrahydronaphthalen-1-yl)methyl)-1H-pyrrolo[2,3-b]pyridine-2-carboxylate]
Second: CC(C)OC(=O)c1cc2ccc(CN)nc2n1Cc1cc(NS(=O)(=O)CC[C@@H]2CCCN2)cc2ccccc12 [Compound 270, propan-2-yl 6-(amino-methyl)-1-[(3-{2-[(2S)-pyrrolidin-2-yl]ethane-sulfonamido}naphthalen-1-yl)methyl]-1H-pyrrolo-[2,3-b]pyridine-2-car-boxylate]
The pKi of the first is higher: no less than 7.00 for the first, 5.52 to 6.30 for the second.

For `C[C@@H]1CN(C(=O)Nc2cc(Cn3c(C(=O)O)cc4ccc(CN)nc43)c3ccccc3c2)C[C@H](C)N1` [Compound 304, 6-(aminomethyl)-1-[(3-{[(3R,5S)-3,5-dimeth-ylpiperazine-1-carbon-yl]amino}naphthalen-1-yl)methyl]-1H-pyrrolo-[2,3-b]pyridine-2-car-boxylic acid], the pKi was 5.52 to 6.30.

Same assay, conditions: Table B; Human Recombinant Matriptase 2, 3.5 nM enzyme, 62 μM substrate, 30 mins preincubation; read-out: Mean Ki

For `NCc1ccc2cc(C(=O)OCC3CNC(=O)C3)n(Cc3cc(NS(=O)(=O)Cc4ccsc4)cc4ccccc34)c2n1` (stereo not drawn) [Compound 2.13], the pKi was no less than 7.00.
